Target: Fatty acid synthase (Homo sapiens, UniProt P49327)
Experiment: Inhibition of fatty acid synthase

Fatty acid synthase, sequence (P49327 whole entry): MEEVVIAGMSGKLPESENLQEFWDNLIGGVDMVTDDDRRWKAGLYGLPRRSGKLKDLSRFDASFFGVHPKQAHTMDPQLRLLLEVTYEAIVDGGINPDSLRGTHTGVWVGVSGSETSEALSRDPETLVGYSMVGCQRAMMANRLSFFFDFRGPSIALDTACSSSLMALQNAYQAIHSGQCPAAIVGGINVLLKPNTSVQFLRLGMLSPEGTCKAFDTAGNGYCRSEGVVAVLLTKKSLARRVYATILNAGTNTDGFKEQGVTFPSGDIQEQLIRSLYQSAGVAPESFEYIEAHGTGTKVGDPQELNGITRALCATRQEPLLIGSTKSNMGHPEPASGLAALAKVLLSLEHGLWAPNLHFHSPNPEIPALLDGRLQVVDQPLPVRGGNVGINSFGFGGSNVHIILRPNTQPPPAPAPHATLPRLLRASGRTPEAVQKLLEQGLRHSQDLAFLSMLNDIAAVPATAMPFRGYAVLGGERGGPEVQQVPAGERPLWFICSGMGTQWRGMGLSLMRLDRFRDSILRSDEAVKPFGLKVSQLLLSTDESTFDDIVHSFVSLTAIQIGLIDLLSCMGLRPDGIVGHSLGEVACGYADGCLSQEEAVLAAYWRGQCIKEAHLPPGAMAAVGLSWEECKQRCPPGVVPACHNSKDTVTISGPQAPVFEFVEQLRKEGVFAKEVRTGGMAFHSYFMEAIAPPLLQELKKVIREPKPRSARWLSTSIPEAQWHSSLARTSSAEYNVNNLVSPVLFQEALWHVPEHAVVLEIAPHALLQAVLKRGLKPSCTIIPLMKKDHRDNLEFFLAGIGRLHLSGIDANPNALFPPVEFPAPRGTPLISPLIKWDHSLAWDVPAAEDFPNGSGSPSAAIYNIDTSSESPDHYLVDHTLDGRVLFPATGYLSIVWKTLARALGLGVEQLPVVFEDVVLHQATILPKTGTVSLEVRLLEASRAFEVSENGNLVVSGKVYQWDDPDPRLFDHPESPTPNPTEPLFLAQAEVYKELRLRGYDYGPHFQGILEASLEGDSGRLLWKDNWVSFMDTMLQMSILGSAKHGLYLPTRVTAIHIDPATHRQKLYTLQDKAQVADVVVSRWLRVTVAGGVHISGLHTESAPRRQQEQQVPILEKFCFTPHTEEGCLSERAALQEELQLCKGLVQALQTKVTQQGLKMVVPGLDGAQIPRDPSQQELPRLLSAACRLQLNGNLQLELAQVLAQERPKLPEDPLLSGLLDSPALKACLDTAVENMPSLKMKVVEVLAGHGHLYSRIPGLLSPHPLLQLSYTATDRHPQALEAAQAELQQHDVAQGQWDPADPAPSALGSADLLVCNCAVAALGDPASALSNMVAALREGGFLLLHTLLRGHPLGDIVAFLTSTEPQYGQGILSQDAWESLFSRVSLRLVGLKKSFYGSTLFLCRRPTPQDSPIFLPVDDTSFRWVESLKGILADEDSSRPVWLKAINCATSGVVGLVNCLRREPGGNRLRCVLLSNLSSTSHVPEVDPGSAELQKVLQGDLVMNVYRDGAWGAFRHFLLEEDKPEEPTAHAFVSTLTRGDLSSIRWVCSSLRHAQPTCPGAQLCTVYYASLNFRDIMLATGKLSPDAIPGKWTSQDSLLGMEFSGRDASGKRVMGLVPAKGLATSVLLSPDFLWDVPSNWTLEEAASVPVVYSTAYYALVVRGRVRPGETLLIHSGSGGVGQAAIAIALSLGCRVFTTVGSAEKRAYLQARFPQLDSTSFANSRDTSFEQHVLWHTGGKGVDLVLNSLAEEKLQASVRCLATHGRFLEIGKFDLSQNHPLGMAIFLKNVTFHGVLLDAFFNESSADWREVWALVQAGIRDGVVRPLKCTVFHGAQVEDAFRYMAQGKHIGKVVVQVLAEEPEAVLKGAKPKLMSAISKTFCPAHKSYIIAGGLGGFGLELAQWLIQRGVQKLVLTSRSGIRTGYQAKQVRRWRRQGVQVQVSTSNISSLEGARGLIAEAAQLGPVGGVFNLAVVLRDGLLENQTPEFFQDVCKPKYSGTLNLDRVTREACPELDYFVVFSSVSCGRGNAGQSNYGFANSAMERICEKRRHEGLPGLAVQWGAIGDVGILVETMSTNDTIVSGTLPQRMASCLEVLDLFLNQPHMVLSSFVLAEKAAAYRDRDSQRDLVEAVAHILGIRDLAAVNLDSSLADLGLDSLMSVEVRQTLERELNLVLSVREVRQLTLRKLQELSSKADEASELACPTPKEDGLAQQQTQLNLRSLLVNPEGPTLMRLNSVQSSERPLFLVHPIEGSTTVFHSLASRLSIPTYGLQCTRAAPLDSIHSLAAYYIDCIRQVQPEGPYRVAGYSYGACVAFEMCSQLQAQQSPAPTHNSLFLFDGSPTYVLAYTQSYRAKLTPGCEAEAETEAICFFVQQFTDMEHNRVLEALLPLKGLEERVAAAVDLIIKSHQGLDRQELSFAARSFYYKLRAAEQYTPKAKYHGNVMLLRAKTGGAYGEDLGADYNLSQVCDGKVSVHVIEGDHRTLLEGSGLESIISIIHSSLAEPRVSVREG

SMILES	IC50 [nM]
C/C=C/C/C=C/CCC(=O)[C@H]1O[C@H]1C(N)=O [CERULENIN]	851
COc1ccc([C@@H]2CC(=O)c3c(O)c(C)c(O[C@@H]4O[C@H](CO[C@@H]5OC[C@H](O)[C@H](O)[C@H]5O)[C@@H](O)[C@H](O)[C@H]4O)c(C)c3O2)cc1 [MICONIOSIDE A]	> 82200
